Article PMC12203697, “Bioactive constituents from the edible seaweed Halymenia hawaiiana (Rhodophyta)” (Pharmaceutical Biology, 2025)
Values after ≈ are worked out from the molar mass of the structure shown. Like-named read-outs stand apart in the source and are kept apart here.

Columns and labels:
[1] = tested on: LPS-induced nitric oxide (NO) production in RAW 264.7 cells; experiment: Inhibition of NO generation in LPS-induced RAW 264.7 cells (Griess); type: cell-based, murine; details: for IC50: Mus musculus
Procedure: The nitrite concentration in the culture medium was measured to indicate nitric oxide (NO) production as previously described (Min et al. [2009]). The murine macrophage RAW 264.7 cell line was obtained from ATCC, Manassas, VA, USA, and maintained in Dulbecco’s modified Eagle’s medium supplemented with 10% heat-inactivated FBS (Cat. No. A5670801, Gibco BRL Co, Grand Island, NY, USA), penicillin G (100 units/mL) (Cat. No. P7794, Sigma-Aldrich, USA), streptomycin (100 µg/mL) (Cat. No. S9137, Sigma-Aldrich, USA), and L-glutamine (2 mM) (Cat. No. 25030081, Gibco BRL Co, Grand Island, NY, USA). In brief, RAW 264.7 cells were seeded at a density of 4 × 10^4 cells/well in phenol red-free media (Cat. No. 11835030, Gibco, USA) in a 96-well plate, and incubated in a humidified incubator with 5% CO2 at 37 °C for 24 hr. […] The concentration of nitric oxide production was assessed using the Griess reagent, which consists of a 1:1 (v/v) mixture of 1% sulfanilamide (Cat No. A13001, Alfa Aesar, Massachusetts, USA) in H3PO4 and N-(1-naphthyl)ethylenediamine dihydrochloride (Cat. No. 102397, MP Biomedicals, USA). Absorbance was recorded with a microplate reader (SynergyMx, BioTeK, Winooski, VT, USA) at 540 nm. A standard curve was created using sodium nitrite (1–100 μM) (Cat. No. 44227, Alfa Aesar, Massachusetts, USA). A sulforhodamine B (SRB) assay was employed to assess the cellular viability of the samples with RAW 264.7 cells under a similar experimental setup. The final % inhibition of NO production was adjusted based on cell viability.

MSSA R113 = experiment: Antibacterial MIC, broth microdilution with resazurin; type: cell-based; details: Staphylococcus aureus; MSSA R113, Gram-positive; read-out: MIC
From the text: (§1) Methicillin-resistant Staphylococcus aureus (MRSA), methicillin-susceptible S. aureus (MSSA), and Gram-negative clinical isolates of bacteria [Escherichia coli (9637) and Serratia marcescens ATCC 13880] were used for this study. […] MSSA HBP10, MSSA LUU7, MSSA R113, S. aureus ONE9, and MSSA POB2 were isolated in Hawaiʻi (Gerken et al. [2021]). Mueller Hinton Broth (MHB, GTIN:00382902979630, Becton, Dickinson and Company, Franklin Lakes, NJ, USA) and Mueller Hinton Agar (MHA, GTIN:00382902252504, Becton, Dickinson and Company, Franklin Lakes, NJ, USA,) were used for bacterial inoculation. MRSA was a pathogen strain causing hospital-acquired infections in 1982. This strain easily acquires resistance to antibiotics, such as vancomycin. MSSA strains isolated from the Island of Hawaiʻi included: Honolʻii Beach Park (HBP10) carry the genes erm(C), aph(3′)-III, and mecA, which provide resistance to macrolide, aminoglycoside, and beta-lactam antibiotics, respectively; Wailuku River (LUU7) which contains the blaZ gene (beta-lactam resistance) (Gerken et al. [2021]). Richardson’s Beach Park (R113) and Onekahakaha (ONE9) which is known for its virulence factors (hlgA, hlgB, hlgC, lukD, and lukE).
(§2) The minimum inhibitory concentrations (MICs) were determined using a two-fold serial dilution method with MHB following the recommendations of the Clinical and Laboratory Standards Institute (CLSI [2012]; Elshikh et al. [2016]). In brief, serial two-fold dilutions of the samples in DMSO were mixed with MHB in a 96-well microplate. Then, 50 µL of bacteria suspension was added to each well, resulting in a final concentration of 1 × 10^4 colony-forming units/well. The plates were incubated at 35–37 °C for 18–24 hr. After incubation, 10 µL of 0.18% resazurin (Cat. No. R7017, Sigma-Aldrich, USA) was added to each well (Elshikh et al. [2016]). The MIC was assessed within 2–3 hr after the addition of resazurin. All antimicrobial assays were performed in triplicate, using vancomycin (Cat. No. SBR00001, Sigma-Aldrich, USA) and gentamicin (Cat. No. G1397, Sigma-Aldrich, USA) as standard controls.

S. aureus 8325-4 = experiment: as above; type: cell-based; details: Staphylococcus aureus, 83254; S. aureus 8325-4, Gram-positive; read-out: MIC
From the text: as §1, §2

MRSA USA300 = experiment: as above; type: cell-based; details: Staphylococcus aureus; MRSA USA300, Gram-positive; read-out: MIC
From the text: as §1, §2

S. aureus CART817 = experiment: as above; type: cell-based; details: Staphylococcus aureus; S. aureus CART817, Gram-positive; read-out: MIC
Procedure: as §2

[2] = tested on: ROS/RNS generation in RAW 264.7 cells; experiment: Intracellular ROS/RNS levels in LPS-induced RAW 264.7 cells (H2DCF-DA); type: cell-based; details: Mus musculus
Procedure: To measure the formation of intracellular ROS and RNS, we utilized the fluorogenic dye 2′,7′-dichlorodihydrofluorescein diacetate (Cat. No. 4091-99-0, H2DCF-DA, Abcam, Boston, MA, USA). This dye detects hydrogen peroxide, peroxyl radicals, and peroxynitrite anions (Kwon et al. [2019]). In brief, RAW 264.7 cells were seeded into a black 96-well plate (Cat. No. 165305, Thermo Fisher, USA) at 4 × 10^4 cells per well and incubated for 24 hr at 37 °C in 5% CO2. Afterward, the cells were treated with or without a sample for 4 hr before adding 1 μg/mL LPS (Cat. No. 00-4976-93, Thermo Fisher, USA) for 20 hr. Once this incubation was complete, the cells were washed twice with fetal bovine serum (FBS)-free media (Cat. No. A5256701, Thermo Fisher, USA) and stained with 10 μM H2DCF-DA (Cat. No. D399, Thermo Fisher, USA) in FBS-free media for 30 min at 37 °C, protected from light. Next, the dye-containing media was discarded, and the cells were washed twice with fresh serum-free media. The relative fluorescent intensity of the cells was measured using a fluorescence plate reader (Synergy H1, BioTeK, Winooski, VT, USA) with excitation/emission at 485 nm/535 nm. Curcumin (Cat. No. C1386-5G, Millipore Sigma, Burlington, MA, USA), a natural phenolic compound with antioxidant activity, was used as positive control. All samples were tested in triplicates. A sulforhodamine B (SRB) assay was conducted to assess cellular viability under a similar experimental setup. The final percentage of inhibition of ROS/RNS generation was calibrated using the % of cell viability.

[3] = RAW264.7, read-out: IC50, inhibition of LPS-induced ROS/RNS generation

SMILES	NO inhibitory activity (in words) ([1]; RAW 264.7 cells, LPS-induced, highest concentration 50 μg/mL)	MIC (MSSA R113)	MIC (S. aureus 8325-4)	MIC (MRSA USA300)	MIC (S. aureus CART817)	IC50 ([2]; RAW264.7, RAW 264.7 cells, H2DCF-DA dye, LPS 1 μg/mL, read-out: IC50, inhibition of LPS-induced ROS/RNS generation)	IC50 ([1]; RAW264.7, RAW 264.7 cells, LPS 1 μg/mL, adjusted for cell viability, read-out: IC50, inhibition of LPS-induced NO production)	inhibition of NO production at 5 µg/ml (in words) ([1]; RAW 264.7 cells, LPS-induced)	IC50 [2, 3]	IC50 ([1]; RAW264.7, read-out: IC50, inhibition of LPS-induced NO production)
Nc1ccn([C@H]2C[C@H](O)[C@@H](CO)O2)c(=O)n1 [Compound 1, deoxycytidine]	no significant NO inhibitory activity	128 µg/mL (≈ 563 µM)	128 µg/mL (≈ 563 µM)	128 µg/mL (≈ 563 µM)	128 µg/mL (≈ 563 µM)					
CC(C)CCC[C@@H](C)[C@H]1CC[C@H]2[C@@H]3CC=C4C[C@@H](O)CC[C@]4(C)[C@H]3CC[C@]12C [Compound 9, cholesterol]		128 µg/mL (≈ 331 µM)	128 µg/mL (≈ 331 µM)	128 µg/mL (≈ 331 µM)	128 µg/mL (≈ 331 µM)	55 ± 4.1 µM	50.2 ± 2.2 µM	significant (p > 0.001) inhibition		
CC(C)CCC[C@@H](C)[C@H]1CCC2[C@@]34C=C[C@]5(C[C@@H](O)CC[C@]5(C)C3CC[C@@]21C)OO4 (stereo partly drawn) [Compound 10, 7-dehydrochoresterol peroxide]		128 µg/mL (≈ 307 µM)	128 µg/mL (≈ 307 µM)	128 µg/mL (≈ 307 µM)	128 µg/mL (≈ 307 µM)			significant (p > 0.001) inhibition	65 ± 4.8 µM	53.6 ± 2.3 µM
CC(C)CCC[C@@H](C)[C@H]1CCC2[C@]1(C)CC=C1[C@]23C=C[C@]2(C[C@@H](O)CC[C@]12C)OO3 (stereo partly drawn) [Compound 11, (3β-5α-8α)5,8-epidioxycholesta-6,9(1)-diene-3-ol]		128 µg/mL (≈ 309 µM)	128 µg/mL (≈ 309 µM)	128 µg/mL (≈ 309 µM)	128 µg/mL (≈ 309 µM)				73.7 ± 6.2 µM	
